In patent US20120028995A1, “NOVEL COMPOUNDS FOR MEDICAL USE AS PEPTIDASE EFFECTORS” (IMTM GMBH, priority 2010, published 2012):

Assays:
[1] = target: T1, purified, recombinant human DPIV (Homo sapiens, UniProt P27487); test: Inhibition of enzymatic activity of DPIV (fluorogenic substrate hydrolysis); assay type: biochemical; conditions: highest test item concentration 25 μM; for IC50: read-out: meas. IC50 (DPIV)
T1 construct: made in house; host or cells: Sf9 insect cells
Method: (§1) The inhibition of the enzymatic activity of DPIV and related enzymes was measured by using purified, recombinant human DPIV (purified from transfected Sf9 cells, final enzyme concentration approx. 1 nM) as well as purified, recombinant DP8 and DP9 (purchased from Biomol). The assay was performed in 0.05M TRIS/HCl puffer pH 7.5, supplemented with 0.05% Triton (v/v), 0.05% BSA (w/v), 2 mM MgCl2.
(§2) The enzymatic activity of DPIV was assessed by the hydrolysis of the fluorogenic substrates H-Gly-Pro-4-amino-7-methyl coumarine (abbreviation of fluorogenic group AMC; purchased from Bachem) or (Ala-Pro)2-Rhodamine 110 (abbreviation R110). The final substrate concentrations were 50 μM or 1 μM, respectively.
(§3) The assay was performed in white microtitre plates for fluorescence measurements. The test items, substrate and enzyme were diluted in assay buffer. The highest test item concentration used was 25 μM. For the calculation of IC50 values, at least 16 log 2-dilutions of each test item were analyzed. As controls, the DPIV activity in the absence of test items as well as the spontaneous hydrolysis of the substrate was determined.
(§4) The release of the fluorescent hydrolysis product AMC was measured at an excitation wavelength of 380 nm and an emission wavelength of 460 nm by using a microtitre fluorescence reader immediately after substrate addition as well as after 30, 60 and 120 min. The hydrolysis of the substrate (Ala-Pro)2-Rhodamine 110 was determined at an exitation wavelength of 488 nm and emission wavelength of 530 nm.

[2] = target: T2, cytosolic aminopeptidase (cAAP) purified from Jurkat cells (Homo sapiens, UniProt P55786); test: Inhibition of enzymatic activity of cytosolic aminopeptidase (cAAP); assay type: biochemical; conditions: highest test item concentration 25 μM; for IC50: read-out: meas. IC50 (cAAP)
T2 construct: The cytosolic aminopeptidase (cAAP) was purified from Jurkat cells; endogenous in cells; host or cells: Jurkat cells (enzyme purified from them)

SZ95 cells = test: Inhibition of DNA synthesis and proliferation of immortalized human sebocytes SZ95; assay type: cell-based; conditions: Homo sapiens, EGF-stimulated SZ95 sebocytes, tritium thymidine incorporation; read-out: Supp. DNA Synt. SZ95 IC50
Method: The immortalized human sebocyte line SZ95 was provided by Prof. C Zouboulis [C C Zouboulis, H Seltmann, H Neitzel, C E Orfanos, Establishment and characterization of an immortalized human sebaceous gland cell line (SZ95). J. Invest. Dermatol. 113(6):1011-1020 (1999), the entire disclosure of which is incorporated by reference herein]. These adherent growing cells were cultured in serum-free Sebomed Complete (Biochrom). Recombinant EGF was added in order to stimulate DNA synthesis and proliferation of the SZ95 cells. Test items were added in concentrations from 0.1 up to 100 μM.
The DNA synthesis of proliferating cells was detected by incorporation of radiolabelled tritium thymidine (3HT) and counting at a beta counter. Based on these raw data the relative proliferation response in relation to cells cultured in the absence of test compound (100% control) was calculated. IC50 values of proliferation suppression were assessed by computer-assisted graphical evaluation.

[3] = test system: purified, recombinant DP8 and DP9; test: Inhibition of enzymatic activity of DP8/9; assay type: biochemical; conditions: highest test item concentration 25 μM; for IC50: read-out: meas. IC50 (DP8/9)
Method: as §1, §2, §3, §4

NHEK cells = test: Inhibition of DNA synthesis and proliferation of normal human epidermal keratinocytes (NHEK); assay type: cell-based; conditions: Homo sapiens, NHEK, 48 h, EGF-stimulated NHEK, BrdU incorporation, read-out: Supp. DNA Synt. NHEK IC50
Method: NHEK cells (primary cells from person) were purchased from PromoCell. For these assay the adherent cells were cultured in serum-free Keratinocyte Growth medium 2 supplemented with epidermal growth factor (EGF) and bovine pituitary extract for 48 hours in flat-bottom microtiter plates. EGF stimulates the DNA synthesis and proliferation of these cells. Test items were added in concentrations from 0.1 up to 100 μM.
The DNA synthesis was assessed by incorporation of bromdesoxyuridine (BrdU) and subsequent detection of BrdU by ELISA technique. Based on these raw data the relative proliferation response in relation to cells cultured in the absence of test compound (100% control) was calculated. IC50 values of proliferation suppression were assessed by computer-assisted graphical evaluation.

[4] = target: T3, aminopeptidase N (APN), purified recombinant human enzyme (Homo sapiens, UniProt P15144); test: Inhibition of enzymatic activity of aminopeptidase N (fluorogenic substrate hydrolysis); assay type: biochemical; conditions: highest test item concentration 25 μM; for IC50: read-out: meas. IC50 (APN)
T3 construct: made in house; host or cells: ECV cells (transfected)
Method: The inhibition of the enzymatic activity of aminopeptidase N (APN) was measured by using purified, recombinant human enzyme (purified from transfected ECV cells, final enzyme concentration approx. 1 nM). […] The assay was performed in 0.05M TRIS/HCl puffer pH 7.5, supplemented with 0.05% Triton (v/v), 0.05% BSA (w/v), 2 mM MgCl2.
The aminopeptidase acitivities wer assessed by the hydrolysis of the fluorogenic substrates H-Ala-4-amino-7-methyl coumarine (abbreviation of fluorogenic group AMC; purchased from Bachem) or (Ala-)2-Rhodamine 110 (abbreviation R110). The final substrate concentrations were again 50 and 1 μM, respectively.
as §3
The release of the fluorescent hydrolysis products AMC and R110 was measured as described above for DPIV substrates.

T lymphocytes (T cells) = test: Suppression of DNA synthesis of PHA-stimulated T lymphocytes; assay type: cell-based; conditions: Homo sapiens, T-cell, 48 h, tritium thymidine incorporation, read-out: Supp. DNA Synt. T-cell IC50
Method: Peripheral blood mononuclear cells (PBMC) from healthy human volunteers were freshly isolated by density gradient centrifugation. T lymphocytes (T cells) were isolated from PBMC fractions via nylon wool adherence. Both cell populations were cultured in serum free lymphocyte medium (AIMV medium, Invitrogen) and stimulated by addition of 1 μg/ml Phytohemagglutinine for 48 hours in 96 well flat-bottom microtiter plates. Test compounds were added at concentration ranges from 0.1 up to 250 μM over the total assay period.
DNA synthesis of proliferating PBMC was assessed by incorporation of nucleotide analogue bromdesoxyuridine (BrdU) and subsequent detection of BrdU by ELISA technique (Cell Proliferation Biotrak™ ELISA system, GE Health Care) according to the protocol of the manufacturer. DNA synthesis of proliferating T cells was determined by incorporation of radio labelled tritium thymidine and subsequent radio detection.
Data output was based on raw data and calculation of relative proliferation response in relation to PHA-activated T cells in the absence of test compound (100% control). The IC50 value of proliferation suppression was assessed by graphical evaluation.

T3 sequence (P15144 whole entry): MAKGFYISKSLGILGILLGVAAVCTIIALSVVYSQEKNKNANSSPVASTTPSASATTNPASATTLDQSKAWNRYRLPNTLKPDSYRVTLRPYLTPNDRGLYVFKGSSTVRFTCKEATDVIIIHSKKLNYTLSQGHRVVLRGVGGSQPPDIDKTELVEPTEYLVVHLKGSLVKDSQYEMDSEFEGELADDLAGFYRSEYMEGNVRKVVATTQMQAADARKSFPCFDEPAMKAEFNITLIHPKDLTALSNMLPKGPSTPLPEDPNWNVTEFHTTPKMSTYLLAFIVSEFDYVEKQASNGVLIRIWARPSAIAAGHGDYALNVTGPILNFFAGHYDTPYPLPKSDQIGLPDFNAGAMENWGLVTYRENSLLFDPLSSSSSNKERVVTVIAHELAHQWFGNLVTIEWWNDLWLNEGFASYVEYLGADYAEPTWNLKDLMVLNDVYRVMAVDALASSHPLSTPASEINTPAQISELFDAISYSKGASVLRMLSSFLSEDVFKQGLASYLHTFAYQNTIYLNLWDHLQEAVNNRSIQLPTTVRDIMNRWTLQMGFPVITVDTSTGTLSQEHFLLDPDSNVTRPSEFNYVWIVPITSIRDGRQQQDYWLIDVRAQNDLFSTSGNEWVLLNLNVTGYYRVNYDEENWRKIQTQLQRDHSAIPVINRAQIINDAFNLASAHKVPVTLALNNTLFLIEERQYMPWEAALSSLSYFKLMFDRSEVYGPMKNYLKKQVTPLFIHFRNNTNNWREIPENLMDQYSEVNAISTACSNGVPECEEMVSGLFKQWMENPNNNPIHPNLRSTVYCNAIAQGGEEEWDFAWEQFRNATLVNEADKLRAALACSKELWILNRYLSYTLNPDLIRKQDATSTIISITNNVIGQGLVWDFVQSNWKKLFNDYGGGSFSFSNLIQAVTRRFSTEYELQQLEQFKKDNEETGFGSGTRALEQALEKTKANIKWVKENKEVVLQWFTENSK
T2 sequence (P55786 whole entry): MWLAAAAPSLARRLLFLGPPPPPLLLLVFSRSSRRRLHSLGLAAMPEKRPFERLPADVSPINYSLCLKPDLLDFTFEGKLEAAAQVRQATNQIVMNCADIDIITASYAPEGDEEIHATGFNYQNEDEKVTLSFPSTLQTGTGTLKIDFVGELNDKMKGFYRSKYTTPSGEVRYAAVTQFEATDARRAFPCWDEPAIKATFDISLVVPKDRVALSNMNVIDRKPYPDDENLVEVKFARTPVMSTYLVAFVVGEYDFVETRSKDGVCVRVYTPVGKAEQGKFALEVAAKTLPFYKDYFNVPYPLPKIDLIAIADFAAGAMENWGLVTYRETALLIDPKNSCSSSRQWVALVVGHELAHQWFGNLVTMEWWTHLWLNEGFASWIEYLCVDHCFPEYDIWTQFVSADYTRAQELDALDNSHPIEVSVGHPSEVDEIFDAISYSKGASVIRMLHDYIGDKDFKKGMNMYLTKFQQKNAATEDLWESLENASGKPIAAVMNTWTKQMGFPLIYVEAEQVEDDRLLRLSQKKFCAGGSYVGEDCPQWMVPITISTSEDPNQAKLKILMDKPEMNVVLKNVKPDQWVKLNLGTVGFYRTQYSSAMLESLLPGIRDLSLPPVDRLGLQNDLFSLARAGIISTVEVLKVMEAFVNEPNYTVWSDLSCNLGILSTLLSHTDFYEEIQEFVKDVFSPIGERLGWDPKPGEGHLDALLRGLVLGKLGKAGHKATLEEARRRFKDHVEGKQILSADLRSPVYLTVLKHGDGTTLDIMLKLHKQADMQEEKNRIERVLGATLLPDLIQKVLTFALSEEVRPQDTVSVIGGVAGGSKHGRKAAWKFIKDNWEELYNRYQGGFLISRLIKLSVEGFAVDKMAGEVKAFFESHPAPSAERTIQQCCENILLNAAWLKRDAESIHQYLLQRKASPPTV
T1 sequence (P27487 whole entry): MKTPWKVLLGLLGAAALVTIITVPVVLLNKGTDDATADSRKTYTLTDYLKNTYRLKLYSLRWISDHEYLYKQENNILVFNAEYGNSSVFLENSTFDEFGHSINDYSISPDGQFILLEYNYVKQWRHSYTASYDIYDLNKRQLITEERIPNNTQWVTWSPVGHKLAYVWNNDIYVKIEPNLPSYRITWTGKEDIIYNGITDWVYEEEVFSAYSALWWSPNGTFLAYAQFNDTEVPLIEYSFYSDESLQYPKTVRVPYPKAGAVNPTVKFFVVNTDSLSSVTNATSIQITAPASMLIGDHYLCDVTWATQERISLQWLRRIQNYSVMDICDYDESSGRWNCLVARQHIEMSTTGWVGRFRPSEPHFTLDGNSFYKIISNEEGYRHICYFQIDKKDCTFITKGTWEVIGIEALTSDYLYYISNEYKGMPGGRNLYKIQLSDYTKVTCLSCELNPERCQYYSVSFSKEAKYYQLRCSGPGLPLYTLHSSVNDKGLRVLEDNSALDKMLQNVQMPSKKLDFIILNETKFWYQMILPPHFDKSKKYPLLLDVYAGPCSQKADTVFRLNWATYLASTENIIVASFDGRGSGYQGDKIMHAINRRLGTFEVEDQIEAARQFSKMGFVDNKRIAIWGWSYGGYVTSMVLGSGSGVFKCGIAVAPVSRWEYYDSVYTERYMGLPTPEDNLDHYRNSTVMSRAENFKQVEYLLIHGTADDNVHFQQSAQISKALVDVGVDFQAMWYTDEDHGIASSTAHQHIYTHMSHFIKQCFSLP

Row | meas. IC50 (DPIV) [1] | meas. IC50 (cAAP) [2] | meas. IC50 (DP8/9) [3] | meas. IC50 (APN) [4] | IC50 (T lymphocytes (T cells)) [µM] | IC50 [1] [µM] | IC50 [2] [µM] | IC50 [4] [µM] | Compound | IC50 (SZ95 cells) [µM] | IC50 (NHEK cells) [µM] | IC50 [3] [µM]
1 | – | no in- hibition | – | no in- hibition | 9 | 0.17 | – | – | CC(C)(CNC(=O)CC(N)Cc1cc(F)ccc1F)CNC(=O)C(O)C(COCc1ccccc1)NC(=O)OC(C)(C)C (stereo not shown) [Compound C19.028] | 49.4 | 31.4 | 1.4
2 | – | – | – | – | – | – | – | – | CC(C)(CNC(=O)CC(N)Cc1cc(F)ccc1F)CNC(=O)C(O)C(N)COCc1ccccc1 (stereo not shown) [Compound C19.020] | – | – | 1.2
3 | no in- hibition | no in- hibition | no in- hibition | no in- hibition | 6.5 | – | – | – | CCCCCC(=O)NC(CC(=O)NCC(C)(C)CNC(=O)C(O)C(COCc1ccc(OC)cc1)NC(=O)CCCCC)Cc1cc(F)ccc1F (stereo not shown) [Compound C19.013] | 17.4 | 15.3 | –
4 | no in- hibition | – | – | no in- hibition | 3.5 | – | – | – | NC(Cc1cc(F)ccc1F)CS(=O)(=O)NCCCCNC(=O)C(O)C(N)Cc1ccccc1 (stereo not shown) [Compound C26.007] | 7.3 | – | –
5 | – | – | no in- hibition | – | 70 | 0.36 | 0.25 | 0.19 | CC(=O)NC(Cc1ccccc1)C(O)C(=O)NCCCS(=O)(=O)NCC(N)Cc1cc(F)ccc1F (stereo not shown) [Compound C26.003] | – | ≥ 167 | –
6 | no in- hibition | no in- hibition | no in- hibition | no in- hibition | 11.4 | – | – | – | CC(C)(C)OC(=O)NC(CCCCNS(=O)(=O)c1cccc(NC(=O)C(O)C(Cc2ccccc2)NC(=O)OC(C)(C)C)c1)C(=O)N1CCSC1 (stereo not shown) [Compound C21.005] | – | 15.3 | –
7 | – | – | – | – | 157 | 0.05 | 0.12 | 0.89 | NC(CCCCNS(=O)(=O)c1cccc(NC(=O)C(O)C(N)Cc2ccccc2)c1)C(=O)N1CCSC1 (stereo not shown) [Compound C21.006] | – | 66.2 | 0.11
8 | – | – | – | – | – | 0.9 | – | 0.01 | NC(CNC(=O)CCCNC(=O)C(O)C(N)Cc1ccccc1)Cc1cc(F)ccc1F (stereo not shown) [Compound C26.008] | – | – | –
9 | no in- hibition | – | – | – | 27.3 | – | 0.13 | 0.09 | NC(CNC(=O)CCCNC(=O)C(O)C(N)Cc1ccccc1)Cc1cc(F)ccc1F (stereo not shown) [Compound C26.005] | – | 28.9 | –
10 | – | – | – | – | – | – | – | – | CC(C)(CNC(=O)CC(N)Cc1cc(F)ccc1F)CNC(=O)C(O)C(N)COCc1ccccc1 (stereo not shown) [Compound C19.001] | – | – | 1.25
11 | – | no in- hibition | no in- hibition | no in- hibition | 200 | 6.52 | – | – | CC(C)(C)OC(=O)NC(CNS(=O)(=O)CCCNC(=O)C(O)C(Cc1ccccc1)NC(=O)OC(C)(C)C)Cc1cc(F)ccc1F (stereo not shown) [Compound C26.002] | – | 18.1 | –
12 | – | – | – | – | 81.2 | 0.33 | 0.37 | 0.92 | CC(C)(CNC(=O)CC(N)Cc1cc(F)ccc1F)CNC(=O)C(O)C(N)CO (stereo not shown) [Compound C19.003] | 81.4 | – | 3.8
13 | – | – | – | – | – | – | – | – | CC(C)(CNC(=O)CC(N)Cc1cc(F)ccc1F)CNC(=O)C(O)C(N)COCc1ccccc1 (stereo not shown) [Compound C19.022] | – | – | 1.2
14 | no in- hibition | – | – | no in- hibition | – | – | – | – | CC(C)(C)OC(=O)NC(CNC(=O)CCCNC(=O)C(O)C(Cc1ccccc1)NC(=O)OC(C)(C)C)Cc1cc(F)ccc1F (stereo not shown) [Compound C26.009] | – | – | –
15 | no in- hibition | no in- hibition | no in- hibition | no in- hibition | 70 | – | – | – | CC(=O)NC(Cc1ccccc1)C(O)C(=O)NCCCS(=O)(=O)NCC(Cc1cc(F)ccc1F)NC(=O)OC(C)(C)C (stereo not shown) [Compound C26.004] | – | ≥ 106 | –
16 | – | – | – | – | 200 | 0.58 | 0.09 | 0.07 | NC(CNS(=O)(=O)CCCNC(=O)C(O)C(N)Cc1ccccc1)Cc1cc(F)ccc1F (stereo not shown) [Compound C26.001] | – | ≥ 135 | 7.37
17 | no in- hibition | – | – | – | 12.9 | – | 0.005 | 0.094 | CC(C)(C)OC(=O)NC(CNC(=O)c1cccc(NC(=O)C(O)C(N)Cc2ccc(-c3cccnc3)cc2)c1)Cc1cc(F)ccc1F (stereo not shown) [Compound C-125] | 13.7 | 4.4 | –

Row | Compound | meas. IC50 (DPIV) [1] | meas. IC50 (cAAP) [2] | meas. IC50 (DP8/9) [3] | meas. IC50 (APN) [4] | IC50 (T lymphocytes (T cells)) [µM] | IC50 [1] [µM] | IC50 [2] [µM] | IC50 [4] [µM] | IC50 (SZ95 cells) [µM] | IC50 (NHEK cells) [µM] | IC50 [3] [µM]
18 | COc1ccc(COCC(NC(=O)C(C)(C)C)C(OCc2ccc(OC)cc2)C(=O)NCC(C)(C)CNC(=O)CC(Cc2cc(F)ccc2F)NC(=O)C(C)(C)C)cc1 (stereo not shown) [Compound C19.018] | no in- hibition | no in- hibition | no in- hibition | no in- hibition | 3.3 | – | – | – | 9.1 | 9.9 | –
19 | CCOC(=O)C(O[Si](C)(C)C(C)(C)C)C(Cc1ccc(-c2cccnc2)cc1)NC(=O)OCc1ccccc1 (stereo not shown) [Compound C26.006] | no in- hibition | no in- hibition | – | no in- hibition | 3.8 | – | – | – | 7.9 | 1.9 | –
20 | CC(C)(CNC(=O)CC(N)Cc1cc(F)ccc1F)CNC(=O)C(O)C(N)Cn1cnc2cncnc21 (stereo not shown) [Compound C18.001] | – | – | – | – | 29.8 | 0.247 | 1 | 0.91 | ≥ 156 | – | 16
